PubChem BioAssay (NCI)
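Compound exposure: 48 hours, 5 concentrations, 96-well plates. TGI: total growth inhibition.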

Experiments:
Test in all cases: inhibition of tumour cell growth, NCI panel, 48 h
MDA-N = system: MDA-N
HCC-2998 colon = system: HCC-2998 colon
K-562 leukemia = system: K-562 leukemia
HL-60(TB) leukemia = system: HL-60(TB) leukemia
HCT-15 colon = system: HCT-15 colon
M14 melanoma = system: M14 melanoma
SK-OV-3 ovarian = system: SK-OV-3 ovarian
EKVX NSCLC = system: EKVX NSCLC
SK-MEL-2 melanoma = system: SK-MEL-2 melanoma
SN12C renal = system: SN12C renal
NCI/ADR-RES ovarian = system: NCI/ADR-RES ovarian
SF-268 CNS = system: SF-268 CNS
DU-145 prostate = system: DU-145 prostate
CCRF-CEM leukemia = system: CCRF-CEM leukemia
TK-10 renal = system: TK-10 renal
OVCAR-5 ovarian = system: OVCAR-5 ovarian
U251 CNS = system: U251 CNS
COLO 205 colon = system: COLO 205 colon
A498 renal = system: A498 renal
LOX IMVI melanoma = system: LOX IMVI melanoma

Row | Structure (SMILES) | TGI (MDA-N) [µM] | TGI (HCC-2998 colon) [µM] | TGI (K-562 leukemia) [µM] | TGI (HL-60(TB) leukemia) [µM] | TGI (HCT-15 colon) [µM] | TGI (M14 melanoma) [µM] | TGI (SK-OV-3 ovarian) [µM] | TGI (EKVX NSCLC) [µM] | TGI (SK-MEL-2 melanoma) [µM] | TGI (SN12C renal) [µM] | TGI (NCI/ADR-RES ovarian) [µM] | TGI (SF-268 CNS) [µM] | TGI (DU-145 prostate) [µM] | TGI (CCRF-CEM leukemia) [µM] | TGI (TK-10 renal) [µM] | TGI (OVCAR-5 ovarian) [µM] | TGI (U251 CNS) [µM] | TGI (COLO 205 colon) [µM] | TGI (A498 renal) [µM] | TGI (LOX IMVI melanoma) [µM]
1 | Clc1c(Cl)c(Cl)c2c(nnn2C2CCCO2)c1Cl (stereo not drawn) | 74.3 | > 100 | 48.7 | 38.5 | 67 | > 100 | > 100 | 73.4 | 73.3 | > 100 | > 100 | > 100 | > 100 | 77.9 | > 100 | > 100 | > 100 | 47.4 | 88.7 | –
2 | CCOP(=O)(OCC)C(C)(C)N(C)/C(F)=N/C(F)(F)F | > 100 | > 100 | > 100 | > 100 | > 100 | > 100 | > 100 | > 100 | > 100 | > 100 | > 100 | > 100 | > 100 | > 100 | > 100 | > 100 | > 100 | > 100 | – | > 100
3 | CCc1c(CN)c(CC)c(CNC2=NCCN2)c(CC)c1CNC1=NCCN1 | > 100 | > 100 | > 100 | – | > 100 | > 100 | > 100 | > 100 | > 100 | > 100 | > 100 | > 100 | > 100 | > 100 | > 100 | > 100 | > 100 | > 100 | > 100 | –
4 | CCCCCC1CC=CC(=O)O1 (stereo not drawn) | 38.2 | – | 42.7 | > 100 | 21.9 | 26.6 | 36.9 | 20.6 | 23.5 | 21.2 | 25.6 | 40.8 | > 100 | 19.7 | 38.1 | 21.4 | 17.2 | 16.7 | > 100 | 25.1
5 | COc1cc(=O)c2c(O)c3c(O)oc(C)cc3c(OC)c2c1 | 80.6 | – | 51.7 | > 100 | 86.8 | 88.5 | 71.2 | 63.8 | 98.9 | 55.8 | 46.7 | > 100 | > 100 | 52.6 | 64.9 | 86.6 | > 100 | 42.2 | > 100 | –
6 | C(/C=C/c1ccccc1)=Nc1ccc2c(c1)Cc1ccccc1-2 | > 100 | – | > 100 | – | > 100 | > 100 | – | > 100 | > 100 | > 100 | > 100 | > 100 | > 100 | > 100 | > 100 | > 100 | 44.4 | – | > 100 | 63
7 | COc1cc(/C=C2/SC(c3ccccc3)N(Cc3ccccc3)C2=O)cc(OC)c1OC (stereo not drawn) | > 100 | > 100 | > 100 | – | > 100 | > 100 | > 100 | > 100 | > 100 | > 100 | > 100 | > 100 | > 100 | – | > 100 | > 100 | > 100 | 45.9 | > 100 | > 100
8 | O=Cc1c2n(c3ccccc13)N[C@@](Cc1ccc(O)cc1)(C(=O)O)C2 | > 100 | – | > 100 | > 100 | > 100 | > 100 | > 100 | > 100 | > 100 | – | > 100 | > 100 | > 100 | > 100 | > 100 | > 100 | > 100 | > 100 | > 100 | > 100
9 | CCN(CC)C(=O)Cn1c(-c2ccccc2)cc2ccccc21 | > 100 | > 100 | > 100 | > 100 | > 100 | > 100 | > 100 | > 100 | > 100 | > 100 | > 100 | > 100 | > 100 | > 100 | > 100 | > 100 | > 100 | 34 | – | > 100
10 | CC(=O)C1C(=O)C(=O)N(c2ccccc2)C1=O (stereo not drawn) | > 100 | > 100 | – | > 100 | > 100 | > 100 | > 100 | > 100 | > 100 | > 100 | > 100 | > 100 | > 100 | > 100 | > 100 | > 100 | > 100 | > 100 | – | > 100
11 | O=C(O)CSC(CC1(c2ccc(Cl)cc2)NC(=O)CS1)c1ccc(Cl)cc1 (stereo not drawn) | > 100 | – | > 100 | > 100 | > 100 | > 100 | > 100 | > 100 | > 100 | > 100 | > 100 | > 100 | > 100 | > 100 | > 100 | > 100 | > 100 | > 100 | > 100 | > 100
12 | CCOc1ccc(N/C(=C(/C(Cl)=C(/Cl)Nc2ccccc2)[N+](=O)[O-])n2nnc3ccccc32)cc1 | 40.3 | > 100 | > 100 | – | 28 | 34 | > 100 | > 100 | 73.7 | 47.2 | 53.7 | 53.4 | > 100 | – | > 100 | > 100 | 33.6 | 50.6 | > 100 | –
